{"source": "patent US20250002523A1", "about": "“RUBUSOSIDE GLUCOSIDES” (SYMRISE AG, priority 2021, published 2025)", "origin": "cited, not measured here", "details": "reported in the background section", "data": [{"smiles": "C=C1C[C@@]23CC[C@H]4[C@@](C)(CCC[C@@]4(C)C(=O)O[C@@H]4O[C@H](CO)[C@@H](O)[C@H](O)[C@H]4O)[C@@H]2CC[C@]1(O[C@@H]1O[C@H](CO)[C@@H](O)[C@H](O)[C@H]1O)C3", "note": "[Rubusoside]", "values": [{"measurement": "sweet taste impression relative to sucrose", "value": "200 times as strong as sucrose"}]}]}
